Reference: patent publication US8440789B2, “Pharmaceutical and/or cosmetic composition containing an active antioxydant principle and cell energy activator” (Societe d'Extraction des Principes Actifs (Vincience), priority 2007, dated 2013)
Ends that are not written are not given here.

What was measured:
Assay type in all cases: cell-based
[1] = tested on: dermal fibroblasts; assay: Synthesis of intracellular ATP (ATP Bioluminescence Assay Kit HS II); details: 1% solution of a 50 ppm solution of peptide, compared to the untreated cells
Description: The goal of this study is to determine the influence of the peptide SEQ ID no 2 on the synthesis of ATP.
This study was conducted using an “ATP Bioluminescence Assay Kit HS II” Kit (Roche Applied Science):
The dermal fibroblasts are treated with a 1% solution, a solution a 50 ppm, containing the peptide SEQ ID no 2, representative of the family of peptides according to the invention, for a period lasting from 1 to 3 hours. At the end of the incubation period, the wells are emptied of their medium and rinsed with 2 ml of cold PBS before adding 250 μl of a lysis buffer supplied by the kit. The cells of each well are then scrapped, then collected in 14 ml tubes. Each well is rinsed with 2×500 μl of cold PBS and everything is against collected the respective tubes. Beginning with these samples, a 1/12000th dilution is done in cold PBS before each reading. The dosage of ATP is done on these samples: 50 μL of this dilution is placed in a luma basin and 50 μl of luminol are added. After 10 seconds, the luminescence read is triggered. The values are standardized with respect to the quantity of proteins for each sample. The measures are done using an apparatus: the Biocounter M2010A LUMAC®/3M.

[2] = tested on: dermal fibroblasts; assay: Protection against oxidative damage: carbonylation of proteins (EIA/ELISA with DNP); details: for decrease in carbonylation: peptide 1% solution at 50 ppm, 72 hours before, during, 24 hours after stress
Source text: The goal of this study is to determine the protector effect of the peptide SEQ ID no 1 with respect to dermal fibroblasts subjected to oxidative stress caused by UV rays or hydrogen peroxide (H2O2). To evaluate the oxidative damage suffered by the cells, measurements of the carbonylation of the proteins was done.
The carbonylation of proteins is the result of the oxidative splitting of proteins or oxidation of the arginine residues, lysine, proline or threonine. The dosage of the carbonylation of proteins is done using an EIA (Enzyme Immuno Assay) technique.
Fibroblasts in culture were placed in the presence of the peptide SEQ ID no 1 in a 1% solution, at 50 ppm, 72 hours before, during, and also 24 hours after the oxidative stress (UVB irradiation of 50 mJ/cm^2 or treatment par 2 mM of H2O2). untreated controls not subjected to oxidative stress are done.
The degree of carbonylation consists in the use of DNP (dinitrophenyl) which has the property to se fixer specifically on these carbonyl groups of the proteins. The fixed DNP is then assayed using an ELISA method, thanks to an anti-DNP antibody linked to peroxydase. A range of BSA (bovine albumin serum) oxidized (with a known concentration of carbonyl groups) is used for calibration.

[3] = tested on: Biopsies of human skin; assay: Protection against stress induced by glycation, ex vivo skin culture, H&E histology; details: methyl glyoxal at 5 or 10 mM; peptide 1% of a 50 ppm mother solution, 24 hours before and 24 hours after glycation agent
Description: The goal of this study is to determine the protective effective of the peptide SEQ ID no 1, with respect to ex vivo epidermal culture subjected to stress by a glycation agent.
Biopsies of human skin are maintained in ex vivo culture, treated with a 1% solution, a mother solution of 50 ppm of peptide SEQ ID no 1, 24 hours before, and also 24 hours after the introduction of a glycation agent (methyl glyoxal at 5 or 10 mM). Histology hematoxyline-eosine (H&E) staining makes it possible to evaluate the quality of skin structures.

Substance	increase in the quantity of intracellular ATP ([1]; after 1 hour of culture) [%]	increase in the quantity of intracellular ATP ([1]; after 3 hours of culture) [%]	decrease in carbonylation ([2]; UVB irradiation of 50 mJ/cm^2, compared to irradiated cells not treated) [%]	reduction in the carbonylation of proteins ([2]; cells treated with peptide (1% solution, at 50 ppm), compared to the untreated cells) [%]	decrease in carbonylation ([2]; oxidative stress by 2 mM of H2O2, compared to stressed cells not treated) [%]	evaluation of the skin structures (H&E staining) [3]
AVLAGD [peptide SEQ ID No 2]	17	67				
Ala-Val-Leu-Ala-Gly-Asp-NH2 (AVLAGD-NH2) [peptide SEQ ID no 1]			20	30	20	net resistance to cellular stress induced by glycation
